# In patent US20240110185A1, “INDUCIBLE ANTI-SENSE REPRESSOR SWITCHES AND USES THEREOF” (Trustees of Boston University, priority 2022, published 2024):
# How the values were obtained:
# [1] = test system: mCherry fluorescent reporter; assay: Inducible anti-sense repressor switch: mCherry reporter repression and recovery in 293T cells stably expressing ZF-VP64-ERT2 synTF and the reporter construct; assay type: cell-based, human
# Description: (§1) To evaluate the kinetics of this repressor switch, 293T cells where generated to stably express both the inducible anti-sense repressor and fluorescent reporter. In order to determine whether the repressor switch is able to transiently silence GOIs, the inventors treated reporter cells with. 1 uM 4-OHT and measured mCherry reporter fluorescence at 1 day, 2 days, and 3 days. In order to determine whether the repressor switch transiently represses GOIs, the inventors removed 4-OHT and measured fluorescence expression after 2 days, 4 days, 6 days, and 8 days (FIG. 5A-5B).
# The expression of mCherry was measured at days 0, d1, d2, d3, d4, d6, d7, d9 and d11.
# as §1, with “To assess transcriptional repression of the GOI, inducible antisense repressor construct comprising (i) a first transcriptional unit comprising a constitutively active promoter operatively linked to a mCherry fluorescent reporter GOI was used, and a (ii) a second transcriptional unit comprising an inverted DNA binding motif (DBM) comprising a zinc finger binding array operatively linked to a minimal promoter (FIG. 4A). To” for “To”, “with 0.1” for “with. 1”
# To assess the inducible transcriptional repressor system, the inventors initially used two vectors. One vector comprises a synthetic inducible repressor construct as defined herein, which compromises a gene of interest (GOI) operatively linked to a constitutive promoter, and downstream, a second transcription unit comprising, in brief, a second promoter, and a binding site for the synTF (e.g., DBM or the DNA binding domain). The second vector encoding the inducible synTF (e.g., small molecule induced synTF) comprising a transcriptional activation domain, DNA-binding domain (DBD) and a nuclear localization domain (or cytosolic domain). First, to construct the nucleic acid encoding the small-molecule inducer synTF, one of our artificial zinc finger proteins was attached (see U.S. Pat. No. 10,138,493 B2 and Patent Application No. US 2020/0377564 A1, incorporated herein by reference) to both a VP64 transcriptional domain and ERT2 domain (FIG. 2A). To assess the inducer-dependent, synTF mediated transcriptional repression of the GOI, an engineered construct comprising a constitutively expressed mCherry fluorescent reporter, operatively connected to a constitutive promoter was created, which had, downstream a minimal promoter and an inverted zinc finger binding array (ZF-BD) (also referred to as a DNA binding motif (DBM) (FIG. 4A).
# To evaluate the kinetics of this inducible antisense repressor switch, 293T cells were transduced with the vector encoding the synTF and the inducible transcriptional repressor construct to generate a reporter cell line that stably expresses both the inducible synTF and fluorescent reporter. To determine whether the repressor switch was able to transiently silence the GOI mRNA, the cells were treated with three concentrations of 4-OHT and mCherry reporter was measured fluorescence at 1 day, 2 days, and 3 days (FIG. 5A-5B). Next, to determine whether the inducible synTF repressor switch could transiently represses the expression of the GOI, 4-OHT was removed and measured fluorescence expression after 2 days, 4 days, 6 days, and 8 days (FIG. 5B).
# [2] = test system: mCherry; assay: Downstream inducible repression with synTF-RD (zinc finger, KRAB, ERT2) and its repressor construct, % mCherry (FIG. 6B); assay type: cell-based; conditions: 4-OHT at 0.1, 0.2, 0.5 and 1 μM for d0-d3, 8 days after removal
# Source text: FIG. 6A-6B show an alternative embodiment of a synTF and construct system for downstream inducible-repression.
# [3] = test system: mCherry GOI; assay: Inducible-repressor circuit with spacer and second promoter, % mCherry and FACS (FIG. 8, FIG. 9); assay type: cell-based
# Source text: FIG. 7 is a schematic of an exemplary inducible-repressor circuit (top panel), and a second exemplary inducible-repressor circuit (bottom panel), where the second inducible-repressor circuit is modified to comprise, in the second transcription unit, a spacer and a second promoter, and the DBD, each if which are in the antisense direction to the first transcription unit comprising the first promoter and GOI.
# [4] = test system: mCherry; assay: Inducible-repressor circuit with RZ and synTF-MNAS, % mCherry (FIG. 11); assay type: cell-based; conditions: 4-OHT d0-d3 at 0.1, 0.2, 0.5 and 1 μM, duplicates
# Source text: FIG. 10 is a schematic of an exemplary synTF comprising VP64, and an exemplary inducible anti-sense repressor construct comprising, in the second transcription unit, a ribosome entry site (RZ), and a nucleic acid sequence that is the antisense to a portion of the nucleic acid encoding the GOI, which are both 5′ to the second promoter and the DBD. In some embodiments, the antisense to the portion of the GOI, herein referred to as “synTF-mediated nucleic acid sequence” or “synTF-MNAS” can be replaced by any RNAi molecule known to persons of ordinary skill in the art.
smiles,measurement,setting,value
"CC/C(=C(\c1ccc(O)cc1)c1ccc(OCCN(C)C)cc1)c1ccccc1 [4-OHT, 4-hydroxytamoxifen]",reporter fluorescence expression after 3 days of 4-OHT,"[1]; 0.1 uM 4-OHT, 293T reporter cells, after 3 days",strongly repressed
same,"mCherry expression in the presence of 4-OHT, of normal levels","[1]; 4-OHT at 0.1 μM, 0.2 μM and 0.5 μM for d0-d3, 293 cells with synTF and construct of FIG. 2A-2B",about 20%
same,mCherry levels 8 days after the removal of 4-OHT,"[1]; 4-OHT at 0.1 μM, 8 days after removal",back to normal levels
same,reporter fluorescence expression after 4-OHT removal,[1]; 8 days post 4-OHT removal,restored
same,"mCherry expression restored, of baseline levels","[1]; 8 days post 4-OHT removal, 0.1 M 4-OHT treatment (so in the source)",100%
same,repression of mCherry expression,"[1]; all three 4-OHT concentrations, after 3 days, 293T reporter cells",approx. 80%
same,mCherry expression after the removal of 4-OHT,"[1]; d4-d11, after 3 days of 4-OHT",significantly increased
same,repression of mCherry compared with the synTF and construct of FIG. 5B,[2],milder repression
same,repression of mCherry compared with the construct in the top panel of FIG. 7,"[3]; 4-OHT d0-d3 at 0.1 μM, 0.2 M (so in the source), 0.5 μM and 1 μM, duplicates, spacer and second promoter circuit",greater repression
same,"mCherry expression, FACS flow plot","[3]; 2 days after addition of 1 uM 4-OHT, decreased from 87.9% before",69.8%
same,repression of mCherry compared with the construct in the top panel of FIG. 7,[4],greater repression
